Results on five compounds are retold here after ChEMBL document CHEMBL1123316, “Synthesis and biological activity of substance P C-terminal hexapeptide analogues: structure-activity studies” (1986).

The species entered for one assay is Cavia porcellus. Kind of assay: In vitro potency as spasmogen relative to SP against guinea pig ileum.
The species named for another assay is Rattus norvegicus. In words: In vitro potency as spasmogen relative to SP against rat colon muscularis mucosae.

Where a SMILES comes first, the peptide text is derived from it. [ ]: non-standard residue; d: D form. Orn = NCCC[C@H](N)C(=O)O

`CSCC[C@H](NC(=O)[C@H](CC(C)C)NC(=O)CNC(=O)[C@H](Cc1ccccc1)NC(=O)[C@H](Cc1ccccc1)NC(=O)[C@@H](N)CCCN)C(N)=O` (H-[Orn]FFGLM-NH2): the Relative potency was found to be 0.39 in the assay filed under Cavia porcellus and 0.36 in the assay listed under Rattus norvegicus.
In the case of `CO[C@H](C)[C@H](N)C(=O)N[C@@H](Cc1ccccc1)C(=O)N[C@@H](Cc1ccccc1)C(=O)NCC(=O)N[C@@H](CC(C)C)C(=O)N[C@@H](CCSC)C(N)=O` (H-T(Me)FFGLM-NH2), the Relative potency in the assay filed under Cavia porcellus is on record as 0.066; in the assay filed under Rattus norvegicus it was 0.16.
For the compound H-QFFGLM-NH2, the results for the Relative potency in the assay listed under Cavia porcellus and in the assay filed under Rattus norvegicus were 0.3 and 0.076, respectively.
In the same order, the values of H-TFFGLM-NH2 are 0.021 and 0.056.
H-VFFGLM-NH2: the Relative potency in the assay listed under Cavia porcellus is 0.067; in the assay filed under Rattus norvegicus it was 0.15.
